pIC50: −log10 of the molar value. Where two headings read alike, the source gives them in different places.
Assays:
[1] = target: K18/ΔK280 (Homo sapiens, UniProt P10636, DEL598-598); assay: Thioflavine S assay, inhibition of PHF formation, K18/ΔK280 without heparin; assay type: biochemical
From the text: All the polymerisation reactions described so far used heparin as a cofactor for inducing PHF assembly because otherwise the process would be impracticably slow (Goedert et al., 1996; Perez et al., 1996). In order to rule out a potential influence of heparin on the efficiency of the compounds the 4-repeat construct K18/ΔK280 which carries one of the mutations observed in frontotemporal dementia (van Swieten et al., 1999) and is capable of polymerising into PHFs without a polyanionic cofactor (von Bergen, 2001) (FIG. 2E) was used. […] The differences in inhibition effects for K18 (with heparin) and K18/ΔK280 (without heparin) could be caused either by a difference in conformation and/or protein-protein interactions, or perhaps by an interaction between the compound and the cofactor heparin.

[2] = target: T1, Aβ1-40 peptide (Homo sapiens, UniProt P05067); assay: Aβ fibre aggregation inhibition (thioflavine T); assay type: biochemical; conditions: 60 μM compound
T1 construct: Commercial human Aβ1-40 was obtained from Calbiochem; purchased Calbiochem
T1 sequence (P05067 672-711): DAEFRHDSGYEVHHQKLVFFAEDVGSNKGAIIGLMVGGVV
Experimental: Besides the activity of the compounds towards tau fibres, their specificity is an important issue, i.e. the ability to discriminate between different types of aggregates. Therefore, an analysis of the influence of the compounds (60 μM) on amyloid fibrils made from the Aβ1-40 peptide, both in terms of inhibition of de novo filament formation and depolymerisation was performed (FIGS. 8A-B). These fibres are also abundant in Alzheimer brain and contain a core of cross-β-structure, but are located outside the cells, in contrast to the intracellular PHFs.
Commercial human Aβ1-40 was obtained from Calbiochem (Schwalbach, Germany) and stored at −20° C. The AD peptide was routinely dissolved in 100% DMSO to obtain a 2 mM stock solution, which was subsequently stored frozen at −20° C. 5 μl from the 2 mM Aβ stock solution was added to 90 μl of 25 mM phosphate buffer containing 120 mM NaCl, and 0.02% sodium azide, final pH 7.4 and 5 μl of 100% DMSO so that the final DMSO concentration was 10% v/v, and the protein concentration was adjusted to 100 μM. Incubations were at room temperature. In order to accelerate aggregation tubes were put on a lab shaker and agitated at moderate speed. For analysis 5 μl of this solution were added to 45 μl 10 mM phosphate buffer containing 6 μM thioflavine T, pH 6.0, after 30 minutes incubation at room temperature the fluorescence was measured at 504 nm emission by an excitation of 409 nm. To correlate fibril morphology with the fluorescence signal, aliquots of the Aβ1-40 solutions were simultaneously prepared for electron microscopy. The inhibition of fibril formation and disassembly of pre-formed Aβ-fibrils were carried out in triplicates with 60 μM compound and 10 μM protein.
Aβ peptide 1-40 (10 μM) was incubated with moderate shaking overnight at room temperature and incubated with various compounds (60 μM) overnight.

[3] = system: K18/ΔK280/Y310W; assay: Tryptophan fluorescence inhibition assay, K18/ΔK280/Y310W; assay type: biochemical, human; conditions: 60 μM compound
From the text: In order to exclude a possible distortion of the data by the dye the results of the ThS assays can be confirmed by a tryptophan fluorescence assay (Li et al., 2002). It allows the detection of the molecular environment of a tryptophan introduced instead of tyrosine 310 whose emission maximum is sensitive to the burial in a more hydrophobic surrounding upon PHF formation. Therefore the mutants K19/Y310W (FIG. 1I) and K18/Y310W (FIG. 1H) that contain a single tryptophan within the core of the PHF structure were created. In the soluble protein the emission maximum lies at ˜354 nm, whereas it shifts to 340 nm upon PHF formation (FIG. 3A, compare first and second entry). […]
The fluorescence experiments were performed on a Spex Fluoromax spectrophotometer (Polytec, Waldbronn, Germany) using 3 mm×3 mm micro cuvettes from Hellma (Mühlheim, Germany) with 20 μl sample volumes. […] The slit widths were 5 nm, the integration time was 0.25 second, and the photomultiplier voltage was 950 V. For fluorescence inhibition assay, 60 μM compounds were incubated with K19/Y310W construct (10 μM) or K18/ΔK280/Y310W and heparin (2.5 μM) in PBS, pH 7.4 three days at 37° C. […]
(A-C) fluorescence emission maximum of the single tryptophan W310 inserted by site-directed mutagenesis into tau constructs K19 (FIG. 3A), K18 (FIG. 3B) and K18/ΔK280 (FIG. 3C). […]

[4] = ThS fluorescence, read-out: Inhibition of tau aggregation IC50, K18/ΔK280

K18/ΔK280, sequence (P10636 with tags, fused parts or gaps DEL598-598): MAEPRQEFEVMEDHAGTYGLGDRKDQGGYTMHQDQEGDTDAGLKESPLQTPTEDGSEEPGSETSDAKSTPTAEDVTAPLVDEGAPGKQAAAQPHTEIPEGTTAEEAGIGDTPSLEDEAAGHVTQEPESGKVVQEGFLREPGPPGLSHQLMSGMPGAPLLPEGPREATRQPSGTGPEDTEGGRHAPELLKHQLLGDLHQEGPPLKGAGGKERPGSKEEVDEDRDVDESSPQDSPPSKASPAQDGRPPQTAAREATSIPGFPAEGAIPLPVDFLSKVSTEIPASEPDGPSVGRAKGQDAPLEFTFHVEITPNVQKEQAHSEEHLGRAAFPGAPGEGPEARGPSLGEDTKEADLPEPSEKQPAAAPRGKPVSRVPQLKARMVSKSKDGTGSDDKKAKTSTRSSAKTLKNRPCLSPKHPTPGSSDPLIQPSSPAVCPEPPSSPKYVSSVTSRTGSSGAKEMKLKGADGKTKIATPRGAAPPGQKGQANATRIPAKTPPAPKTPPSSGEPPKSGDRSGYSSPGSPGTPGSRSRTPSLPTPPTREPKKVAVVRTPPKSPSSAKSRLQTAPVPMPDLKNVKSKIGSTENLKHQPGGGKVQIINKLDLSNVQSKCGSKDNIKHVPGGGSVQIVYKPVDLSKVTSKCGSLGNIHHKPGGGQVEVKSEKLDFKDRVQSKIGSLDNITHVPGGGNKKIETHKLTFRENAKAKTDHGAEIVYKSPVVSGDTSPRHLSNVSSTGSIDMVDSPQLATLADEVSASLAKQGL

Structure (SMILES): COc1cccc2c1C(=O)c1c(O)c3c(c(O)c1C2=O)CC(O)(C(C)=O)CC3OC1CC(N)C(O)C(C)O1 (stereo not drawn) [Daunorubicin, 8-Acetyl-10-(4-amino-5-hydroxy-6-methyl-tetrahydro-pyran-2-yloxy)-6,8,11-trihydroxy-1-methoxy-7,8,9,10-tetrahydro-naphthacene-5,12-dione, reference compound]
- pIC50 [1, 4]: 4.32
- inhibition of Aβ fibre aggregation [2]: most efficient

Structure (SMILES): O=C1c2ccc(O)c(O)c2C(=O)c2c(O)ccc(O)c21 [PHF016, 1,2,5,8-Tetrahydroxy-anthraquinone]
- pIC50 [1, 4]: 5.89
- inhibition of Aβ fibre aggregation [2]: most efficient
- ranking as inhibitor, K18/ΔK280, Trp fluorescence [3]: worst

Structure (SMILES): O=C(c1ccccc1)c1ccc(O)c(O)c1O [PHF005, 1-Phenyl-1-(2,3,4-trihydroxy-phenyl)-methanone]
- inhibition of filament formation, K18/ΔK280 [1]: failed nearly completely
- pIC50 [1, 4]: < 4.22
- inhibition at 60 µM ([2]; 10 μM Aβ1-40, read-out: inhibition of Aβ filament formation): ~50%
- ranking as inhibitor, K18/ΔK280, Trp fluorescence [3]: best

Structure (SMILES): Cc1cc(O)c2c(c1)C(=O)c1cc(O)cc(O)c1C2=O [Emodin, 1,3,8-Trihydroxy-6-methyl-anthraquinone]
- pIC50 [1, 4]: 5.72
- inhibition of Aβ fibre aggregation [2]: most efficient

Structure (SMILES): COc1cccc2c1C(=O)c1c(O)c3c(c(O)c1C2=O)CC(O)(C(=O)CO)CC3OC1CC(N)C(O)C(C)O1 (stereo not drawn) [Adriamycin, 10-(4-Amino-5-hydroxy-6-methyl-tetrahydro-pyran-2-yloxy)-6,8,11-trihydroxy-8-(2-hydroxyethanoyl)-1-methoxy-7,8,9,10-tetrahydro-naphthacene-5,12-dione, reference compound]
- pIC50 ([1]; Inhibition of tau aggregation IC50, K18/ΔK280, ThS fluorescence): 5.41

From US20060223812A1, “Treating neurodegenerative conditions” (MAX-PLANCK-GESELLSCHAFT ZUR FORDERUNGDER WISSENSCHAFTEN, …, priority 2004, published 2006)
